Holding throughout (assay type): cell-based
Test [1] deals with Staphylococcus epidermidis ATCC 12228. The experiment in a line: MIC, microbroth dilution, standard strains. Conditions: ATCC12228, ATCC 12228, read-out: Minimum inhibitory concentration. Put shortly:
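MIC read as the lowest concentration inhibiting growth in a microbroth dilution series. Moxifloxacin serves as the reference comparator.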
(In general: Broth dilution looks for growth in wells or tubes with falling amounts of substance.)

Test [2] relates to vancomycin-resistant Enterococcus faecalis (VRE) 18-507. The experiment in a line: MIC, clinical drug-resistant bacteria. The settings on record: VRE 18-507; read-out: Minimum inhibitory concentration against clinical drug-resistant bacteria. On the procedure: (§1) The minimum inhibitory concentration (MIC) of the pleuromutilin derivative containing thiazole-pyridine benzyl quaternary ammonium salt side chain was tested with moxifloxacin as a positive control (purchased from Shanghai Macklin Biochemical Technology Co., Ltd.) using a microbroth dilution method. At the same time, the pleuromutilin derivative containing thiazole-pyridine benzyl quaternary ammonium salt side chain of the invention was compared with the marketed pleuromutilin antibiotics, such as retapamulin (purchased from Nanjing Chemlin Chemical Industry Co., Ltd.), tiamulin (purchased from Shanghai Yuanye Bio-Technology Co., Ltd) and valnemulin (purchased from Shanghai Acmec Biochemical Co., Ltd), in order to screen out pleuromutilin derivatives with better activity.
(§2) Clinical resistant bacteria include multidrug-resistant Pseudomonas aeruginosa (MDR-PA) 18-993, 18-756 and 18-126, multidrug-resistant Klebsiella pneumoniae (MDR-KP) 18-893, 18-754 and 18-1482, methicillin-resistant Staphylococcus aureus (MRSA) 18-171, 18-209 and 18-575, vancomycin-resistant Enterococcus faecalis (VRE) 18-94, 18-80 and 18-507, and carbapenem-resistant Acinetobacter baumannii (CR-AB) 18-184, 18-560 and 18-882, all the clinical drug-resistant strains were from Huashan Hospital, Fudan University.

Test [3] deals with carbapenem-resistant Acinetobacter baumannii (CR-AB) 18-184. Nature of the test: MIC, clinical drug-resistant bacteria. Conditions: CR-AB 18-184, read-out: Minimum inhibitory concentration against clinical drug-resistant bacteria. The procedure: as §1, §2
Test [4] has as its system methicillin-resistant Staphylococcus aureus (MRSA) 18-575. The experiment in a line: MIC, clinical drug-resistant bacteria. The settings on record: MRSA 18-575, read-out: Minimum inhibitory concentration against clinical drug-resistant bacteria. On the procedure:
as §1, §2

Test [5] has as its system vancomycin-resistant Enterococcus faecalis (VRE) 18-94. The experiment in a line: MIC, clinical drug-resistant bacteria. The settings on record: VRE 18-94; read-out: Minimum inhibitory concentration against clinical drug-resistant bacteria. The procedure:
as §1, §2

Test [6] deals with carbapenem-resistant Acinetobacter baumannii (CR-AB) 18-560. The experiment in a line: MIC, clinical drug-resistant bacteria. The settings on record: CR-AB 18-560, read-out: Minimum inhibitory concentration against clinical drug-resistant bacteria. On the procedure: as §1, §2
Test [7] has as its system multidrug-resistant Klebsiella pneumoniae (MDR-KP) 18-1482. Nature of the test: MIC, clinical drug-resistant bacteria. Conditions: MDR-KP 18-1482, read-out: Minimum inhibitory concentration against clinical drug-resistant bacteria. The procedure: as §1, §2
The subject of test [8] is multidrug-resistant Klebsiella pneumoniae (MDR-KP) 18-893. Nature of the test: MIC, clinical drug-resistant bacteria. The settings on record: MDR-KP 18-893, read-out: Minimum inhibitory concentration against clinical drug-resistant bacteria. On the procedure: as §1, §2
Test [9] relates to vancomycin-resistant Enterococcus faecalis (VRE) 18-80. The experiment in a line: MIC, clinical drug-resistant bacteria. Conditions: VRE 18-80; read-out: Minimum inhibitory concentration against clinical drug-resistant bacteria. The procedure:
as §1, §2

The subject of test [10] is methicillin-resistant Staphylococcus aureus (MRSA) 18-171. The experiment in a line: MIC, clinical drug-resistant bacteria. The settings on record: MRSA 18-171, read-out: Minimum inhibitory concentration against clinical drug-resistant bacteria. The procedure:
as §1, §2

The subject of test [11] is multidrug-resistant Pseudomonas aeruginosa (MDR-PA) 18-993. The experiment in a line: MIC, clinical drug-resistant bacteria. Conditions: MDR-PA 18-993, read-out: Minimum inhibitory concentration against clinical drug-resistant bacteria. The procedure: as §1, §2
Test [12] has as its system multidrug-resistant Klebsiella pneumoniae (MDR-KP) 18-754. The experiment in a line: MIC, clinical drug-resistant bacteria. Conditions: MDR-KP 18-754, read-out: Minimum inhibitory concentration against clinical drug-resistant bacteria. On the procedure: as §1, §2
The subject of test [13] is multidrug-resistant Pseudomonas aeruginosa (MDR-PA) 18-756. The experiment in a line: MIC, clinical drug-resistant bacteria. Conditions: MDR-PA 18-756, read-out: Minimum inhibitory concentration against clinical drug-resistant bacteria. On the procedure: as §1, §2
Test [14] deals with carbapenem-resistant Acinetobacter baumannii (CR-AB) 18-882. The experiment in a line: MIC, clinical drug-resistant bacteria. The settings on record: CR-AB 18-882, read-out: Minimum inhibitory concentration against clinical drug-resistant bacteria. The procedure:
as §1, §2

For test [15], the system named is multidrug-resistant Pseudomonas aeruginosa (MDR-PA) 18-126. The experiment in a line: MIC, clinical drug-resistant bacteria. Conditions: MDR-PA 18-126, read-out: Minimum inhibitory concentration against clinical drug-resistant bacteria. On the procedure: as §1, §2
Test [16] relates to methicillin-resistant Staphylococcus aureus (MRSA) 18-209. The experiment in a line: MIC, clinical drug-resistant bacteria. The settings on record: MRSA 18-209, read-out: Minimum inhibitory concentration against clinical drug-resistant bacteria. On the procedure:
as §1, §2

Structures can show the parent of a compound that is named as a salt.

Consider `C=C[C@]1(C)C[C@@H](OC(=O)CSc2nc(-c3cc[n+](Cc4ccc([N+](=O)[O-])cc4)cc3)cs2)[C@]2(C)[C@H](C)CC[C@]3(CCC(=O)[C@H]32)[C@@H](C)[C@@H]1O` [Compound 7, 1-(4-(nitro)benzyl)-4-(2-(8-hydroxy-4,7,9,12-tetramethyl-3-oxo-7-vinyldecahydro-4,9a-propancyclopent[8]cyclen-5-yl)oxy)-2-oxoethyl)thiazol-4-yl)pyridyl bromide salt], for which the MIC in test [1] is 2 µg/mL; in test [2], 64 µg/mL; in test [3], 32 µg/mL; in [4], 64 µg/mL; in [5], 64 µg/mL; in test [6] it was 64 µg/mL. Besides, the MIC in test [7] was found to be 16 µg/mL; in test [8], 16 µg/mL; in test [9], 8 µg/mL; in [10], 64 µg/mL; in [11], 32 µg/mL; in test [12], 16 µg/mL. Besides, the MIC in [13] was 32 µg/mL; in test [14] it was 16 µg/mL; in test [15], 8 µg/mL; in test [16], 16 µg/mL.

The values are drawn from patent US12384771B2, “Pleuromutilin derivative containing thiazole-pyridine benzyl quaternary ammonium salt side chain and preparation method and use thereof” (SHAANXI UNIVERSITY OF SCIENCE AND TECHNOLOGY, priority 2022, dated 2025).
